# Measured values published in the supplement of paper PMC10599287.
# Key:
# GDC-0623 = compound: O=C(NOCCO)c1ccc2cncn2c1Nc1ccc(I)cc1F [GDC-0623]; assay: absolute IC70 (antiproliferative, propidium iodide); higher = less potent; conditions: exposure time: 4 days
# Protocol: (§1)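 Modified propidium iodide survival/proliferation assay in 294 human tumor cell lines (2D monolayer for solid tumors, suspension for hematologic lines) after 4 days of continuous exposure to 10 concentrations in half-log steps from 0.001 to 30 µM. Absolute IC70 was fitted by four-parameter nonlinear regression of T/C × 100 (%) values; 30 µM is the top dose.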
# [1] = compound: CCNC(=O)C#Cc1ccc2c(C(=Nc3ccc(CN(C)C)cc3)c3ccccc3)c(O)[nH]c2c1; assay: as above; conditions: exposure time: 4 days
# Protocol: as §1
Test System,absolute IC70 (GDC-0623),absolute IC70 [1]
DND-39,> 30000 nM,72 nM
SNU-739,> 30000 nM,1380 nM
MM.1S,> 30000 nM,9 nM
WSU-DLCL2,> 30000 nM,892 nM
Hep-G2,16500 nM,55 nM
FU97,> 30000 nM,6600 nM
GXA_3011,> 30000 nM,97 nM
OCI-AML2,< 1 nM,7 nM
L-363,> 30000 nM,692 nM
IM95,> 30000 nM,12200 nM
PANC-1,> 30000 nM,5080 nM
MDA-MB-231,78 nM,120 nM
SF295,> 30000 nM,8840 nM
CAL-27,14 nM,250 nM
RXF_1183,102 nM,949 nM
HCC2998,257 nM,896 nM
UXF_1138,> 30000 nM,6 nM
A204,> 30000 nM,614 nM
MOLM-6,41 nM,9 nM
HCT-15,> 30000 nM,1440 nM
NCI-H460,> 30000 nM,11 nM
NCI-H1184,> 30000 nM,815 nM
NCI-H929,10 nM,43 nM
RPMI-8226,> 30000 nM,1580 nM

Test System,absolute IC70 (GDC-0623),absolute IC70 [1]
U-266,> 30000 nM,1700 nM
MINO,> 30000 nM,10 nM
BXF_5637,359 nM,20 nM
DAUDI,> 30000 nM,10 nM
SXFO_678,> 30000 nM,87 nM
LP-1,> 30000 nM,2160 nM
MKN7,> 30000 nM,17500 nM
KM20L2,51.8 nM,186 nM
JURKAT,> 30000 nM,2330 nM
MM.1R,> 30000 nM,23 nM
LXFA_983,18500 nM,202 nM
SU-DHL-1,> 30000 nM,406 nM
EFO-21,> 30000 nM,2140 nM
MDST8,6.01 nM,55.5 nM
MEXF_394,4 nM,42 nM
PAXF_1998,> 30000 nM,4620 nM
OVCAR-5,367 nM,694 nM
NCI-H82,> 30000 nM,2330 nM
U-937,> 30000 nM,348 nM
LXFA_289,> 30000 nM,1790 nM
SCLC-21H,> 30000 nM,31 nM
H69AR,> 30000 nM,688 nM
MAXF_401,730 nM,28 nM
RCH-ACV,> 30000 nM,6 nM

Test System,absolute IC70 (GDC-0623),absolute IC70 [1]
A427,> 30000 nM,283 nM
COLO-741,38.9 nM,524 nM
LXFL_529,233 nM,329 nM
HPAF-II,79 nM,285 nM
SW480,23.9 nM,101 nM
KM-H2,> 30000 nM,2770 nM
LEXFAM_2531,> 30000 nM,26 nM
MEXF_1792,169 nM,462 nM
COLO-678,> 30000 nM,3000 nM
SW403,7.71 nM,841 nM
CXF_94,167 nM,554 nM
CCRF-CEM,> 30000 nM,13 nM
SNU-1,> 30000 nM,3000 nM
SXFS_1301,> 30000 nM,3850 nM
NCI-H441,> 30000 nM,1340 nM
LS174T,72.3 nM,40.4 nM
RH-30,24600 nM,794 nM
EJM,> 30000 nM,2820 nM
TT2609-C02,12 nM,18 nM
MEXF_535,5 nM,99 nM
SD1,> 30000 nM,4 nM
LIXFC_575,3010 nM,654 nM
BXF_1036,8 nM,115 nM
NCI-H522,30000 nM,102 nM
